Results published in ChEMBL document CHEMBL1909046, “DrugMatrix in vitro pharmacology data”.

Key:
[1] = biological target: Matrix metalloproteinase-9 (Homo sapiens, UniProt P14780); type: cell-based;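 also: inhibition of isolated MMP-9 enzyme activity toward a synthetic peptide substrate, from the DrugMatrix protease screening panel; in other assays of this panel Not Active means under 50% inhibition at 10 µM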
[2] = DRUGMATRIX: Imidazoline I2, Central radioligand binding (ligand: [3H] Idazoxan); type: cell membranes, Rattus norvegicus, Wistar, Cerebral cortex, Membrane; settings: Not Active = under 50% inhibition at 10 µM
[3] = biological target: Receptor tyrosine-protein kinase erbB-2 (Homo sapiens, UniProt P04626); type: cell-based; settings: insect cells;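 also: inhibition of HER2 kinase enzyme activity, measured with Poly(Glu:Tyr) as the phosphorylation substrate; in other assays of this panel Not Active means under 50% inhibition at 10 µM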
[4] = biological target: Tyrosine-protein kinase Lck (Homo sapiens, UniProt P06239); test: DRUGMATRIX: Protein Tyrosine Kinase, LCK enzyme inhibition (substrate: Poly(Glu:Tyr)); type: cell-based, Insect cells; settings: insect cells; Not Active = under 50% inhibition at 10 µM
[5] = biological target: T1, 5-hydroxytryptamine receptor 1A (Rattus norvegicus, UniProt P19327); type: cell membranes, CHO-K1, Membrane; also: in other assays of this panel Not Active means under 50% inhibition at 10 µM
T1 sequence (P19327 whole entry): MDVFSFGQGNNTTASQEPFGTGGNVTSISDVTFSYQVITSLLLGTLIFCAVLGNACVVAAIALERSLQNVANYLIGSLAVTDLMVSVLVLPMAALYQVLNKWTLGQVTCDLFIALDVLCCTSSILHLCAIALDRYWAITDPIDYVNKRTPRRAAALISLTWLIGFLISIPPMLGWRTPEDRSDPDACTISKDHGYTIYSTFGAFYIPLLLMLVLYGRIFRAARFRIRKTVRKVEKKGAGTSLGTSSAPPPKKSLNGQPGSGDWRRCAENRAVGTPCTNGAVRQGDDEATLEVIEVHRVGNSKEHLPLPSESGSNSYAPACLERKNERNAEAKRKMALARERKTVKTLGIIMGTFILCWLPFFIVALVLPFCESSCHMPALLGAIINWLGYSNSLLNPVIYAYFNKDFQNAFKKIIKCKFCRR

[6] = DRUGMATRIX: Sigma2 radioligand binding (ligand: [3H] Ifenprodil); type: cell membranes, Rattus norvegicus, Wistar, Brain, Membrane; settings: Not Active = under 50% inhibition at 10 µM

Chain of Tyrosine-protein kinase Lck (P06239 whole entry): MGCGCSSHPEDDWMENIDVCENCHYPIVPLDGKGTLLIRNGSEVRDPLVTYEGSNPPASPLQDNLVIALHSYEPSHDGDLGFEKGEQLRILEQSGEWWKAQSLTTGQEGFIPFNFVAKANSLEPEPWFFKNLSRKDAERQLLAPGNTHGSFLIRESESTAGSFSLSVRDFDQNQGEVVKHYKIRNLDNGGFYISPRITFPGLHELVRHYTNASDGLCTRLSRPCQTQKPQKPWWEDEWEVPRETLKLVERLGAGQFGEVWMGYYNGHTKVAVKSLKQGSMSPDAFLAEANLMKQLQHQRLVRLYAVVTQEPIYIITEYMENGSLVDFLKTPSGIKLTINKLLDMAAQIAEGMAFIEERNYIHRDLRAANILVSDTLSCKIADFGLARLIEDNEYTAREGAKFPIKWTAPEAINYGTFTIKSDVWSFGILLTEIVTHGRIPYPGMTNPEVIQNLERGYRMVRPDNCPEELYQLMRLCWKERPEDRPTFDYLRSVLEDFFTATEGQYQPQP
Chain of Matrix metalloproteinase-9 (P14780 whole entry): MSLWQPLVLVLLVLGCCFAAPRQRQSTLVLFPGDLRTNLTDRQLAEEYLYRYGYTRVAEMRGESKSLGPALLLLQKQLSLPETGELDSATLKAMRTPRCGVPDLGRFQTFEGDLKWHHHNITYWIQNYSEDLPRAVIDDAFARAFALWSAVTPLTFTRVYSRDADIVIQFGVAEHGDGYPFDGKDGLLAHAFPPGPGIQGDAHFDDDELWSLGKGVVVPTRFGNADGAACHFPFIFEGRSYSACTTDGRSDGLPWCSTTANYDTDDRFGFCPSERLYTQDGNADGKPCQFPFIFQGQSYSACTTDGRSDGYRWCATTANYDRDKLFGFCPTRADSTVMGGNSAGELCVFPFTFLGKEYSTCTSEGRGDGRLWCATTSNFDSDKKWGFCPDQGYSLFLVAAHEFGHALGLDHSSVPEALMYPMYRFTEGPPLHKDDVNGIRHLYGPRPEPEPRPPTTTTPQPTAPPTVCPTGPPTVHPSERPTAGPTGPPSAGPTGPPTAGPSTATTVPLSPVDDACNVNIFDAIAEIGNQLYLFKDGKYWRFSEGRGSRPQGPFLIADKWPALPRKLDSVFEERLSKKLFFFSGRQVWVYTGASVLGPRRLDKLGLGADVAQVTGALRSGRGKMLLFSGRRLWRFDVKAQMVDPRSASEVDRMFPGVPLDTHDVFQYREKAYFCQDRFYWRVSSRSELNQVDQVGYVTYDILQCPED

Compound	IC50 [1]	IC50 [2]	Ki [2]	IC50 [3]	IC50 [4]	IC50 ([5]; cho-k1)	IC50 [6]	Ki [6]	IC50 ([2]; read-out: IC50) [µM]	Ki ([2]; read-out: Ki) [µM]	IC50 ([5]; read-out: IC50) [µM]	Ki ([5]; read-out: Ki) [µM]	Ki [1]	Ki [3]	Ki [4]	Ki ([5]; cho-k1)
CC(C)(C#N)c1cc(Cn2cncn2)cc(C(C)(C)C#N)c1 [ANASTROZOLE]	Not Active	Not Active	Not Active	Not Active	Not Active	Not Active	Not Active	Not Active								
CC12CCC(CC1=O)C2(C)C (stereo unspecified) [CAMPHOR]	Not Active	Not Active	Not Active	Not Active	Not Active	Not Active	Not Active	Not Active								
CC12CCC(CC1)C(C)(C)O2 [EUCALYPTOL]	Not Active	Not Active	Not Active	Not Active	Not Active	Not Active	Not Active	Not Active								
Cc1ccnc2c1NC(=O)c1cccnc1N2C1CC1 [NEVIRAPINE]	Not Active	Not Active	Not Active	Not Active	Not Active	Not Active	Not Active	Not Active								
Clc1cc(Cl)c(OCC#CI)cc1Cl [HALOPROGIN]	Not Active	Not Active	Not Active	Not Active	Not Active	Not Active	Not Active	Not Active								
Oc1ccccc1 [PHENOL]	Not Active	Not Active	Not Active	Not Active	Not Active	Not Active	Not Active	Not Active								
CCCCCCNC(=O)n1cc(F)c(=O)[nH]c1=O [CARMOFUR]	Not Active	Not Active	Not Active	Not Active	Not Active	Not Active	Not Active	Not Active								
Nc1ccc(C(=O)O)c(O)c1 [AMINOSALICYLIC ACID]	Not Active	Not Active	Not Active	Not Active	Not Active	Not Active	Not Active	Not Active								
COc1cc(NC(C)CCCN)c2ncccc2c1 (stereo unspecified) [PRIMAQUINE]	Not Active	Not Active	Not Active	Not Active	Not Active	Not Active	Not Active	Not Active								
Cc1cc(C(C)(C)C)c(O)c(C)c1CC1=NCCN1 [OXYMETAZOLINE]	Not Active			Not Active	Not Active		Not Active	Not Active	0.027	0.018	0.00561	0.00321				
O=c1[nH]cnc2c1ncn2[C@H]1CC[C@@H](CO)O1 [DIDANOSINE]	Not Active	Not Active	Not Active	Not Active	Not Active	Not Active	Not Active	Not Active								
CC(=O)[C@]1(O)Cc2c(O)c3c(c(O)c2[C@@H](O[C@H]2C[C@H](N)[C@H](O)[C@H](C)O2)C1)C(=O)c1ccccc1C3=O [IDARUBICIN]	Not Active	Not Active	Not Active	Not Active	Not Active	Not Active	Not Active	Not Active								
COC(=O)Nc1nc2ccc(Sc3ccccc3)cc2[nH]1 [FENBENDAZOLE]	Not Active	Not Active	Not Active	Not Active	Not Active	Not Active	Not Active	Not Active								
CC(C)(c1ccc(O)cc1)c1ccc(O)cc1 [BISPHENOL A]	Not Active	Not Active	Not Active	Not Active	Not Active	Not Active	Not Active	Not Active								
C=C(Cl)Cl [1,1-DICHLOROETHENE]	Not Active	Not Active	Not Active	Not Active	Not Active	Not Active	Not Active	Not Active								
O=C(O)CCc1nc(-c2ccccc2)c(-c2ccccc2)o1 [OXAPROZIN]	Not Active	Not Active	Not Active	Not Active	Not Active	Not Active	Not Active	Not Active								
NCC(CC(=O)O)c1ccc(Cl)cc1 (stereo unspecified) [BACLOFEN]	Not Active	Not Active	Not Active	Not Active	Not Active	Not Active	Not Active	Not Active								
CC[C@H]1OC(=O)[C@H](C)[C@@H](O[C@H]2C[C@@](C)(OC)[C@@H](O)[C@H](C)O2)[C@H](C)[C@@H](O[C@@H]2O[C@H](C)C[C@H](N(C)C)[C@H]2O)[C@](C)(O)C[C@@H](C)C(=O)[C@H](C)[C@@H](O)[C@]1(C)O [ERYTHROMYCIN]	Not Active	Not Active	Not Active	Not Active	Not Active	Not Active	Not Active	Not Active								
C=CCO [ALLYL ALCOHOL]	Not Active	Not Active	Not Active	Not Active	Not Active	Not Active	Not Active	Not Active								
COC(=O)C[C@](O)(CCC(C)(C)O)C(=O)O[C@@H]1C(OC)=C[C@]23CCCN2CCc2cc4c(cc2[C@H]13)OCO4 [HARRINGTONINE]	Not Active	Not Active	Not Active	Not Active	Not Active	Not Active	Not Active	Not Active								
CHROMIC CHLORIDE	Not Active	Not Active	Not Active	Not Active	Not Active	Not Active	Not Active	Not Active					Not Active	Not Active	Not Active	Not Active
C#C[C@]1(O)CC[C@H]2[C@@H]3CCC4=CC(=O)CC[C@@H]4[C@H]3CC[C@@]21C [NORETHINDRONE]	Not Active	Not Active	Not Active	Not Active	Not Active	Not Active	Not Active	Not Active								
O=C1CN(/N=C/c2ccc([N+](=O)[O-])o2)C(=O)N1 [NITROFURANTOIN]	Not Active	Not Active	Not Active	Not Active	Not Active	Not Active	Not Active	Not Active								
c1ccc2c(c1)Nc1ccccc1S2 [PHENOTHIAZINE]	Not Active	Not Active	Not Active	Not Active	Not Active	Not Active	Not Active	Not Active								
CC(CN1c2ccccc2Sc2ccccc21)N(C)C (stereo unspecified) [PROMETHAZINE]	Not Active			Not Active	Not Active		Not Active	Not Active	1.99	1.33	2.6	1.48				
c1ccc(Cn2ccnc2)cc1	Not Active	Not Active	Not Active	Not Active	Not Active	Not Active	Not Active	Not Active								
CC(C)Cn1cnc2c(N)nc3ccccc3c21 [IMIQUIMOD]	Not Active	Not Active	Not Active	Not Active	Not Active	Not Active	Not Active	Not Active								
OC[C@H]1OC2C3[C@@H](CO)OC(O[C@H]4[C@H](O)[C@@H](O)[C@@H](O[C@H]5[C@H](O)[C@@H](O)[C@@H](O[C@H]6[C@H](O)[C@@H](O)[C@@H](O[C@H]7[C@H](O)[C@@H](O)[C@@H](O[C@H]8[C@H](O)[C@@H](O)[C@@H](O[C@H]9[C@H](O)[C@@H](O)C(OC1[C@H](O)[C@H]2O)O[C@@H]9CO)O[C@@H]8CO)O[C@@H]7CO)O[C@@H]6CO)O[C@@H]5CO)O[C@@H]4CO)[C@H](O)[C@H]3O	Not Active	Not Active	Not Active	Not Active	Not Active	Not Active	Not Active	Not Active								
COc1cc(/C=C/C(=O)O)ccc1O [FERULATE]	Not Active	Not Active	Not Active	Not Active	Not Active	Not Active	Not Active	Not Active								
CCN1C[C@]2(COC)[C@H](O)C[C@H](OC)[C@@]34[C@@H]5C[C@@]6(O)[C@H](OC(=O)c7ccccc7)[C@@H]5[C@@](OC(C)=O)([C@@H]([C@H](OC)[C@H]23)[C@@H]14)[C@@H](O)[C@@H]6OC [ACONITINE]	Not Active	Not Active	Not Active	Not Active	Not Active	Not Active	Not Active	Not Active								
